Assay results: patent publication US9683254B2, “Compositions and methods for identifying enzyme and transport protein inhibitors” (San Diego State University (SDSU) Foundation, priority 2010, dated 2017)

Key:
SupT1 cells = assay: Cell death in the reporter T-cell clones during PI concentration response; conditions: for concentration resulting in significant cell death, with decline in number of eGFP positive cells: human, 50 h
Experimental: (§1) The range chosen extended from 1 nM to 20 μM.
Cells were then analyzed 50 hrs later for eGFP expression as determined by flow cytometry on a BD FACSAria.

[1] = test system: tet-responsive element (TRE); assay: Doxycycline activation titration of clonal SupT1 cells (Tet-On, eGFP readout); format: cell-based
Experimental: In order to optimize the assay for maximal Gal4, PR/Gal4 or PRm/Gal4 induction, we analyzed the effect of increasing levels of Dox. Cells with 0, 50, 100, 250, 500, 750, 1,000, and 2,000 ng/mL Dox were either treated with 10 uM DMSO or 10 uM Indinavir and analyzed 32 hours later. TRE-Gal4 cells reached saturation with Doxycycline at about 1,000 ng/mL whether Indinavir was present or not. […] Again, as with transiently transfected 293 cells, TRE-PR/Gal4 cells had little to non-detectable eGFP expression at any given Dox concentration in the absence of 10 μM Indinavir.
(§2) FIG. 22 graphically illustrates data determining the optimal conditions for activating the assay to screen for PR inhibition. FIG. 22A graphically illustrates a Doxycycline titration. Clonal SupT1 cells harboring an inducible Gal4, PR/Gal4 or PRm/Gal4 were pre-incubated in a 96 well plate with either DMSO or 10 μM Indinavir and then either left untreated, or activated with […] of Dox. Cells were analyzed by flow cytometry and gated to determine the number of cells positive for eGFP expression. FIG. 22B graphically illustrates a time course of eGFP Induction in response to Doxycyline activation in the presence of DMSO or a PI. SupT1 clones harboring Gal4, PR/Gal4, or PRm/Gal4 were pre-incubated in a 96 well plate with either DMSO or 10 μM Indinavir and then activated with 1 μg/mL Dox. Cells were analyzed at either 4, 8, 12, 16, 20, 25, 50 or 75 hours by flow cytometry and gated for eGFP positive expression.

HIV-1 PR [2] = target: T1, HIV-1 PR (Human immunodeficiency virus type 1 group M subtype B, UniProt P04585); format: cell-based; design: expressed in transfected cells; host or cells: SupT1 T-cell clone (lentiviral transduction; rtTA/mCherry, 5xUAS-eGFP reporter, inducible PR/Gal4); conditions: for concentration resulting in eGFP activation: analyzed 50 hrs, range tested 1 nM to 20 μM
Experimental: Finally, cells were infected with virus encoding the reporter, rtTA and inducible wild-type PR/Gal4 (pH-TRE-PR/Gal4) to test the ability for this system in T-cells to indicate the levels of PR activity.
To determine the optimal time point for the analysis of eGFP expression in the presence of inhibitor, cells were activated with Dox and analyzed by flow cytometry 4, 8, 12, 16, 20, 25, 50, or 75 hours later. Six-well plates containing 250K cells per well in 3 mL media were treated either with DMSO alone as control, or 1 μg/mL Dox and 10 μM Indinavir.
as §1
Flow Cytometry was performed on a BD FACSAria™ with 488 nm and 633 nm lasers. Data was collected on FACSDiva 6.1.1™ software and then exported to FlowJo™. eGFP expression was detected in the FITC channel and mCherry expression was detected on the PE-Texas-Red channel. Cells were first gated for size and granularity (FSC-A vs SSC-A) followed by doublet gating (FSC-A vs FSC-W and SSC-A vs. SSC-W). Sorted populations were gated on PE-TexasRed vs FITC plot. 250K cells were collected for each sample into 0.5 mL fetal calf serum (FCS) and 1 mL RPMI. Cells were then spun down at 1500 RPM and resuspended in fresh media in 6-well plates. Cells were allowed to grow for at least seven days to allow for expansion and loss of previously activated eGFP expression.
FIG. 21A (upper left) schematically illustrates exemplary constructs utilized to generate infectious particles for the transduction of SupT1 cells with the various assay elements. FIG. 21B (right) illustrates data from a cell sorting assay comprising: a previously generated stable SupT1 cell line expressing rtTA and mCherry was infected with the reporter virus (generated from pH-5×UAS-eGFP), or co-infected with the reporter virus plus a virus encoding an inducible assay element (generated from pH-TRE-Gal4, pH-TRE-PR/Gal4, or pH-TRE-PRm/Gal4). Cells were then activated with either 1 μg/mL of Dox alone, or were pre-incubated for 5 minutes with 10 μM Indinavir following activation with 1 μg/mL Dox. […] Finally, single SupT1 cells from the purified population were sorted into 96 well plates and grown as a monoclonal population and then tested for optimal responses to assay induction of eGFP under appropriate conditions. FIG. 21C (lower left) illustrates images of fluorescence microscopy of SupT1 clones expressing the assay elements. Cells expressing various elements of the assay were treated as indicated with DMSO, DMSO+1 μg/mL Dox, or […] Dox+10 μM Indinavir and analyzed 24 hours later by fluorescence microscopy for mCherry and eGFP expression. D. Quantification of eGFP expression of clonal SupT1 cells treated with DMSO, DMSO+1 μg/mL Dox, or 1 μg/mL Dox+10 μM Indinavir.
as §2, with “PI.” for “PI. SupT1 clones harboring Gal4, PR/Gal4, or PRm/Gal4 were pre-incubated in a 96 well plate with either DMSO or 10 μM Indinavir and then activated with 1 μg/mL Dox. Cells were analyzed at either 4, 8, 12, 16, 20, 25, 50 or 75 hours by flow cytometry and gated for eGFP positive expression.”

HIV-1 PR [3] = target: T1, HIV-1 PR; format: cell-based; design: expressed in transfected cells; rtTA/mCherry, 5xUAS-eGFP reporter, inducible PR/Gal4; conditions: HEK293T cells pre-treated with 10 uM inhibitor, co-transfected with reporter and pcDNA-PR/Gal4
Experimental: It was of critical importance to verify the ability for the PR/Gal4 fusion to activate the reporter eGFP by the addition of PR inhibitors. For that purpose, 293T cells were pre-treated with 10 μM Indinavir and then co-transfected with reporter and pcDNA-PR/Gal4 vectors.
293T cells were transfected as follows. 15 μl of 2 mg/mL Polyethylenimine linear 25 kD (Polysciences, Inc.) were added to 125 μl of DMEM in a 1.8 ml Eppendorf tube. 3 g of each DNA was added drop-wise to each tube. Tubes were mixed and incubated for 20 min at RT. This mixture was then added drop-wise to 293T cells in a 10 cm plate at approximately 60-75% confluence. Cells were then analyzed by fluorescence microscopy and/or flow cytometry 24 hrs post transfection.
Top Panel: Fluorescence microscopy of eGFP expression in HEK293T cells 24 hours post transfection with the reporter vector (pFR), or co-transfection with the reporter vector plus either the Gal4, PR/Gal4, or PRm/Gal4 vectors. Bottom panel: HEK293T cells were analyzed by flow cytometry at 24 hours post transfection with the same conditions top panel. Gates were drawn to determine the ability to identify cells with an active PI. […] Quantification of eGFP expression in HEK293T transfected with various assay elements. The numbers of cells under various conditions were quantified for eGFP levels indicative of PR inhibition. Results shown are an average of 3 experiments.

HIV-1 PR [4] = target: T1, HIV-1 PR; format: cell-based; design: expressed in transfected cells; host or cells: SupT1 T-cell clone (lentiviral transduction; rtTA/mCherry, 5xUAS-eGFP reporter, inducible PR/Gal4); conditions: clonal SupT1, 96-well plates, pre-incubation with 1 μM PI, activation at 1 μg/mL Dox
[5] = SupT1 PR/Gal4 clone, 1 μg/mL Dox, 50 hrs
[6] = SupT1 PR/Gal4 clone, 1 μg/mL Dox

Cc1cccc(C)c1OCC(=O)N[C@@H](Cc1ccccc1)[C@@H](O)C[C@H](Cc1ccccc1)NC(=O)[C@H](C(C)C)N1CCCNC1=O [Lopinavir]
concentration resulting in significant cell death, with decline in number of eGFP positive cells (SupT1 cells): around 1 uM

C[C@H]1c2cccc(O)c2C(=O)C2=C(O)[C@]3(O)C(=O)C(C(N)=O)=C(O)[C@@H](N(C)C)[C@@H]3[C@@H](O)[C@@H]21 [Doxycycline]
concentration at saturation of eGFP induction, TRE-Gal4 cells ([1]; clonal SupT1 TRE-Gal4, with or without 10 uM Indinavir, 32 hours): about 1,000 ng/mL | concentration at maximal eGFP induction, TRE-PR/Gal4 cells ([1]; clonal SupT1 TRE-PR/Gal4, pre-incubation with 10 μM Indinavir, 32 hours): around 500 ng/mL | concentration at saturation of eGFP induction, TRE-PRm/Gal4 cells ([1]; clonal SupT1 TRE-PRm/Gal4, uninhibited and Indinavir-treated, 32 hours): around 250 ng/mL | concentration at which activation is saturated (FIG. 33) ([1]; clonal SupT1 cells pre-incubated with DMSO or 1 μM Indinavir): around 1 μg/mL

COC(=O)N[C@H](C(=O)N[C@@H](Cc1ccccc1)[C@@H](O)CN(Cc1ccc(-c2ccccn2)cc1)NC(=O)[C@@H](NC(=O)OC)C(C)(C)C)C(C)(C)C [Atazanavir]
effect on PR inhibition (ranking among tested PIs) (HIV-1 PR [2]; [5]): strongest effect | concentration resulting in eGFP activation (HIV-1 PR [2]; [6]): 1 nM

CC(C)(C)NC(=O)[C@@H]1CN(Cc2cccnc2)CCN1C[C@@H](O)C[C@@H](Cc1ccccc1)C(=O)N[C@H]1c2ccccc2C[C@H]1O [Indinavir]
eGFP expression (reporter activation by PR/Gal4) (HIV-1 PR [3]): drastic induction | concentration inducing nearly full activation of reporter (HIV-1 PR [2]; [5]): 5 µM | levels of reporter activation at low concentrations (ranking among tested PIs) (HIV-1 PR [2]; [5]): lowest levels | activation of PR/Gal4 clones (FIG. 31) (HIV-1 PR [2]; SupT1 PR/Gal4 clones, Dox 1 μg/mL, PI 1 μM, <1% background): ~90% | time of initial induction of eGFP expression (HIV-1 PR [2]; clonal SupT1, 1 μg/mL Dox and 10 μM inhibitor): 8 h | eGFP expression (% of cells) at 50 hours (HIV-1 PR [2]; clonal SupT1, 1 μg/mL Dox and 10 μM inhibitor, by 50 hours): ~100% | eGFP expression (HIV-1 PR [2]; non-clonal SupT1 cells with reporter, rtTA and pH-TRE-PR/Gal4, 1 μg/mL Dox and 10 μM inhibitor): large induction | time at which activation of clones reaches max (FIG. 34) (HIV-1 PR [4]): around 48 hrs

CC(C)(C)NC(=O)[C@@H]1C[C@@H]2CCCC[C@@H]2CN1C[C@@H](O)[C@H](Cc1ccccc1)NC(=O)[C@H](CC(N)=O)NC(=O)c1ccc2ccccc2n1 [Saquinavir]
concentration with significant cell death / decline in number of eGFP positive cells (SupT1 cells; SupT1 PR/Gal4 clone, 50 hrs, maximal level tested): 20 µM

CC(C)CN(C[C@@H](O)[C@H](Cc1ccccc1)NC(=O)O[C@H]1CO[C@H]2OCC[C@H]21)S(=O)(=O)c1ccc(N)cc1 [Darunavir]
effect on PR inhibition (ranking among tested PIs) (HIV-1 PR [2]; [5]): strongest effect | concentration resulting in eGFP activation (HIV-1 PR [2]; [6]): 1 nM

Cc1c(O)cccc1C(=O)N[C@@H](CSc1ccccc1)[C@H](O)CN1C[C@H]2CCCC[C@H]2C[C@H]1C(=O)NC(C)(C)C [Nelfinavir]
concentration resulting in significant cell death, with decline in number of eGFP positive cells (SupT1 cells): around 1 uM
